According to patent publication US8263601B2, “Deuterium substituted xanthine derivatives” (CoNCERT Pharmaceuticals, Inc., priority 2009, dated 2012):
Where two headings read alike, the source gives them in different places.

Assays:
[1] = Pharmacokinetic study in rats of (S)-M1 and Compound 435(S) after oral dosing (Example 37); format: in vivo, male Sprague-Dawley rats
Protocol: (§1) (S)-M1 and Compound 435(S) (a deuterated form of (S)-M1) were separately dissolved in saline at a concentration of 10 mg/mL. A 1:1 mixture of the two compounds was then prepared containing a final concentration of 5 mg/mL of each compound, which was used for intravenous administration. For oral administration the mixture was further diluted in saline to a final concentration of 1 mg/mL for each compound.
(§2) Three male Sprague-Dawley rats were used in each of the oral and intravenous studies. Animals were fasted overnight prior to administration of compounds. Intravenous administration was achieved by bolus injection of a single 5 mg/kg dose of the 1:1 combination into the cannulated jugular vein of the rats. Cannulation was achieved the day prior to dosing on rats that had been placed under anesthesia using ketamine (IM 30 mg/kg). Oral administration was achieved by oral gavage of a single 5 mg/kg dose. Blood samples (250 μL) were collected from the dosed rats at various times post-dosing (2 min, 5 min, 10 min, 20 min, 30 min, 1 hr, 2 hr, 3 hr, 4 hr, 5 hr, 6 hr) by retro-orbital sampling of the rats temporarily anesthetized with isoflurane. Blood samples were placed in tubes containing K2-EDTA and stored on ice until centrifuged. Within 30 minutes of collection, plasma was isolated by centrifugation. A 100-μL aliquot was removed, mixed with 200 μL of acetonitrile and stored at −20° C. until further analysis by LC-MS/MS using an Applied Bio-systems API 4000 mass spectrometer.
(§3) Samples were analyzed for the presence of the administered compound, the corresponding ketone (pentoxifylline and Compound 409) and the corresponding M5 metabolite. Samples (10 μL) were injected into a Zorbax SB-C8 (Rapid Resolution) column (2.1×30 mm, 3.5 μm). The initial mobile phase condition was 100% A (10 mM ammonium acetate in water) and 0% B (methanol) with a flow rate at 0.5 mL/min. Mobile phase B was allowed to reach 55% in 3 minutes and from 55% to 90% in 1 minute before ramping back to 0% in another minute. The overall run time was 5 minutes. For pentoxifylline and its M1 and M5 metabolites, the precursor/product ion pairs were set at m/z 281/193 (M1), m/z 279/181 (pentoxifylline), and m/z 267/221 (M5).
(§4) For Compound 435(S) and Compound 409 more than one ion pair was set up for to detect species that arose from loss of deuterium. […] This loss of deuterium appears to occur both in vivo and ex vivo by an unknown mechanism. The addition of acetonitrile to serum samples was used to stop any additional ex vivo deuterium loss prior to analysis. Typically, no more than 2 deuterium atoms were replaced by hydrogen. For Compound 435(S), there is a deuterium at the methinyl position which was lost upon oxidation to the keto-compound 409. Reduction of 409 to an M1 metabolite introduced a proton at the methinyl position. When serum from animals dosed with 435(S) were analyzed to quantitate administered compound and metabolites, compound species were included with one and two less side chain deuteriums in the total amounts (referred to hereinafter as the “−1D” and the “−2D” species). Thus, for Compound 435(S) and Compound 409 separate ion pairs were set up to detect the compound and its corresponding −1D and −2D species. For Compound 435(S) three ion pairs were detected: m/z 291/197, 290/197, and […]. For Compound 409 ion pairs of m/z 288/186, 287/186 and 286/186 were monitored. Inclusion of −1D and −2D species in the measurements of Compound 409 and Compound 435(S) more accurately quantitates the total active species and is reasonable based on what is known about the metabolism and activities of pentoxifylline and its M-1 metabolites. Increased plasma exposure to Compound 409 or any M-1 metabolites of 409 would be desirable. This includes the −1D and −2D species.
(§5) [drawing 78] which has no deuterium on its acid side chain, only one ion pair was used at m/z 271/225. The internal standard for the analysis was indiplon.

[2] = Pharmacokinetic study of pentoxifylline and Compound 435(S) in chimps after oral dosing (Example 39); format: in vivo; conditions: for % Difference in AUC0-12 Female (deuterated vs nondeuterated species) / % Difference in AUC0-12 Male (deuterated vs nondeuterated species): oral
Protocol: Pentoxifylline and Compound 435(S) were tested according to a protocol similar to the Oral Dosing protocol followed in Example 38, except that (a) the compounds were separately dissolved in water rather than saline; (b) the mixture of the two compounds was not sterile filtered; and (c) oral administration was achieved by oral gavage of a single 65 mg dose of each compound (13 mL total dosing solution).

[3] = Pharmacokinetic study of pentoxifylline and Compound 435(S) in chimps after oral dosing (Example 38); format: in vivo; conditions: for % Difference in AUC0-∞ Female (deuterated vs nondeuterated species) / % Difference in AUC0-∞ Male (deuterated vs nondeuterated species): oral; for AUC(0-inf): oral gavage 75 mg each of pentoxifylline and 435(S) as 1:1 mixture, species named in label measured in plasma
Protocol: Pentoxifylline and Compound 435(S) were separately dissolved in warm (65° C.) saline at a concentration at 10 mg/mL. A 1:1 mixture of the two compounds was then prepared containing a final concentration of 5 mg/mL of each compound and the mixture was then sterile filtered through a 0.2-μm filter.
Two chimps (one male and one female) were used in each of the oral and intravenous studies. Animals were fasted overnight prior to administration of compounds. All animals were sedated with ketamine (approximately 10 mg/kg) and/or telazol (approximately 5 mg/kg) prior to dosing. Intravenous administration was achieved by IV infusion of 75 mg of each compound (15 mL total dosing solution) over 10 minutes. Oral administration was achieved by oral gavage of a single 75 mg dose of each compound (15 mL total dosing solution). Blood samples (6 mL) were collected from the dosed chimps at various times prior to and after dosing. For intravenous administrations blood samples were collected at 0 min (preinfusion), 5 min, 9.5 min (immediately before the end of the infusion), then 6, 15, 30 and 45 min, and 1, 2, 4, 6, 8, 10 and 12 hr after the infusion is stopped. For oral administrations, blood samples were collected at 0 min (predose), 15 and 30 min, and 1, 1.5, 2, 4, 6, 8, 10 and 12 hr postdose.
Blood samples were placed in tubes containing sodium heparin, mixed and stored on ice until centrifuged. Within 30 minutes of collection, plasma was isolated by centrifuging the blood samples and removing an aliquot (200 μL) of the resulting plasma. Each 200-μL aliquot of plasma was mixed with 400 μL acetonitrile and stored at −70° C. until further analysis by LC-MS/MS using an Applied Bio-systems API 4000 mass spectrometer.
The analysis of all samples by LC-MS/MS was performed as described above for the rat plasma samples in Example 37.

[4] = Pharmacokinetic study in rats of (S)-M1 and Compound 435(S) after intravenous dosing (Example 37); format: in vivo, male Sprague-Dawley rats; conditions: for AUC(0-inf): male, Sprague-Dawley, rat
Protocol: as §1, §2, §3, §4, §5

[5] = male, Sprague-Dawley, rat, oral gavage single 5 mg/kg dose, 1:1 mixture of (S)-M1 and 435(S), species named in label measured in plasma, −1D and −2D species included
[6] = female chimp, oral gavage 65 mg each of pentoxifylline and 435(S) in water, species named in label measured in plasma, read-out: AUC0-12 Female
[7] = male chimp, oral gavage 65 mg each of pentoxifylline and 435(S) in water, species named in label measured in plasma, read-out: AUC0-12 Male
[8] = female chimp, read-out: AUC0-∞ Female
[9] = male chimp, read-out: AUC0-∞ Male
[10] = intravenous bolus single 5 mg/kg dose of 1:1 combination of (S)-M1 and 435(S), species named in label measured in plasma

AUC(0-inf) [1, 5] [ng·h/mL] | % Difference in AUC0-∞ (deuterated vs nondeuterated species) ([1]; oral) | AUC(0-inf) [4, 10] [ng·h/mL] | Structure (SMILES) | % Difference in AUC0-12 Female (deuterated vs nondeuterated species) ([2]; female chimp) | AUC(0-t) [2, 6] [ng·h/mL] | % Difference in AUC0-12 Male (deuterated vs nondeuterated species) ([2]; male chimp) | AUC(0-t) [2, 7] [ng·h/mL] | % Difference in AUC0-∞ Female (deuterated vs nondeuterated species) ([3]; female chimp) | AUC(0-inf) [3, 8] [ng·h/mL] | % Difference in AUC0-∞ Male (deuterated vs nondeuterated species) ([3]; male chimp) | AUC(0-inf) [3, 9] [ng·h/mL] | other results
4510 ± 1020 | +177% | 7130 ± 816 | [2H]c1nc2c(c(=O)n(CCCC([2H])([2H])[C@@]([2H])(O)C([2H])([2H])[2H])c(=O)n2C)n1C([2H])([2H])[2H] [Compound 435(S), (S)-8-d1-1-(4,4,5,6,6,6-d6-5-Hydroxyhexyl)-3-methyl-7-(methyl-d3)-1H-purine-2,6(3H,7H)-dione] | +108% | 183 | +185% | 214 | +123% | 672 | +176% | 829 | Cmax ([1]; male, Sprague-Dawley, rat, oral gavage single 5 mg/kg dose, 1:1 mixture of (S)-M1 and 435(S), species named in label measured in plasma, read-out: Cmax): 4100 ± 964 ng/mL; % Difference in Cmax (deuterated vs nondeuterated species) ([1]; oral): +162%
1920 ± 183 | −36% | 1520 ± 530 | [2H]c1nc2c(c(=O)n(CCCC(=O)O)c(=O)n2C)n1C([2H])([2H])[2H] [Deuterated M5 (M5a)] | −25% | 609 | −18% | 667 | −68% | 606 | −68% | 462 | % Difference in AUC0-∞ (deuterated vs nondeuterated species) ([4]; intravenous): −15%; Amount of M5a metabolite less than amount of M5 metabolite ([4]; intravenous administration of Compound 435(S) vs (S)-M1): 15%
 |  |  | C[C@H](O)CCCCn1c(=O)c2c(ncn2C)n(C)c1=O [(S)-M1, reference compound] |  |  |  |  |  |  |  |  | Ratio of active species (M1 alcohol + ketone) to M5 metabolite ([1]; oral administration, from AUC0-∞): 1.6; Cmax ([1]; oral gavage single 5 mg/kg dose, 1:1 mixture of (S)-M1 and 435(S), species named in label measured in plasma): 1570 ± 249 ng/mL; AUC0-∞ ([1]; oral gavage single 5 mg/kg dose, 1:1 mixture of (S)-M1 and 435(S), species named in label measured in plasma, −1D and −2D species included): 1628 ± 272 ng·h/mL; AUC0-12 Female ([2]; female chimp, oral gavage 65 mg each of pentoxifylline and 435(S) in water, species named in label measured in plasma): 88 ng·h/mL; AUC0-12 Male ([2]; male chimp, oral gavage 65 mg each of pentoxifylline and 435(S) in water, species named in label measured in plasma): 75 ng·h/mL; AUC0-∞ Female ([3]; in vivo, po, 75 mg): 301 ng·h/mL; AUC0-∞ Male ([3]; in vivo, po, 75 mg): 300 ng·h/mL; Ratio of active species to the corresponding M5 metabolite ([4]; intravenous administration): 3.5; AUC0-∞ [4, 10]: 3390 ± 302 ng·h/mL
